Each structure is given as a SMILES string.

As usually defined, the IC50 is the concentration that inhibits the measured activity by half. Higher therefore signals weaker potency.

Experiment [1] has as its target T1, Integrin alpha-4/beta-7 (Homo sapiens, UniProt P13612+P26010).
T1 sequence (P13612 whole entry): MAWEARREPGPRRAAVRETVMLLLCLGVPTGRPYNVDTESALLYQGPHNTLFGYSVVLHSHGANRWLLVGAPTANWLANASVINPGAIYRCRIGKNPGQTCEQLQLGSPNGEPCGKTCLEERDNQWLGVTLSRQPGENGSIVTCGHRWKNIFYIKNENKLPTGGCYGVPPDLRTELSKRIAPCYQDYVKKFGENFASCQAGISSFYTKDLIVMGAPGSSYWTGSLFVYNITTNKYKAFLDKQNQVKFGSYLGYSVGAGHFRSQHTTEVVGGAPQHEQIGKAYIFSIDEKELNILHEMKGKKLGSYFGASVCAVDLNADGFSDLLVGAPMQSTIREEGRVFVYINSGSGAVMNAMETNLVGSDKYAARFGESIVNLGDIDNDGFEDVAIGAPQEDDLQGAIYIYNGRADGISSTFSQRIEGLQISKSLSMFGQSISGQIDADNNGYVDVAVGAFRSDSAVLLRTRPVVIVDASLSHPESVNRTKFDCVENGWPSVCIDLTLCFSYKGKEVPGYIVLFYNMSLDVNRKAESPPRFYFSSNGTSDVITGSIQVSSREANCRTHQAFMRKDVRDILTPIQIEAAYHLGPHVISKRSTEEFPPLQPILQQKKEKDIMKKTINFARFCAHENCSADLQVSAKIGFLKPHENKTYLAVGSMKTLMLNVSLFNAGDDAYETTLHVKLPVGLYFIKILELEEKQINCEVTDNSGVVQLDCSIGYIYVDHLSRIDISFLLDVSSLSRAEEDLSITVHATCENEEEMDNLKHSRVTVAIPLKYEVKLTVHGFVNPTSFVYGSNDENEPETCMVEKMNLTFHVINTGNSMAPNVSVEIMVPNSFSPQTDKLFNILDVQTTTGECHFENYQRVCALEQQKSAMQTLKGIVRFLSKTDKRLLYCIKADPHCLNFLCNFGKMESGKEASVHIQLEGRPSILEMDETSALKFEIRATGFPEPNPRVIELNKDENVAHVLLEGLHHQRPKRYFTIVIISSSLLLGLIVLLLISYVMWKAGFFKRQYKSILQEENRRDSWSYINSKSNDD
T1 sequence (P26010 whole entry): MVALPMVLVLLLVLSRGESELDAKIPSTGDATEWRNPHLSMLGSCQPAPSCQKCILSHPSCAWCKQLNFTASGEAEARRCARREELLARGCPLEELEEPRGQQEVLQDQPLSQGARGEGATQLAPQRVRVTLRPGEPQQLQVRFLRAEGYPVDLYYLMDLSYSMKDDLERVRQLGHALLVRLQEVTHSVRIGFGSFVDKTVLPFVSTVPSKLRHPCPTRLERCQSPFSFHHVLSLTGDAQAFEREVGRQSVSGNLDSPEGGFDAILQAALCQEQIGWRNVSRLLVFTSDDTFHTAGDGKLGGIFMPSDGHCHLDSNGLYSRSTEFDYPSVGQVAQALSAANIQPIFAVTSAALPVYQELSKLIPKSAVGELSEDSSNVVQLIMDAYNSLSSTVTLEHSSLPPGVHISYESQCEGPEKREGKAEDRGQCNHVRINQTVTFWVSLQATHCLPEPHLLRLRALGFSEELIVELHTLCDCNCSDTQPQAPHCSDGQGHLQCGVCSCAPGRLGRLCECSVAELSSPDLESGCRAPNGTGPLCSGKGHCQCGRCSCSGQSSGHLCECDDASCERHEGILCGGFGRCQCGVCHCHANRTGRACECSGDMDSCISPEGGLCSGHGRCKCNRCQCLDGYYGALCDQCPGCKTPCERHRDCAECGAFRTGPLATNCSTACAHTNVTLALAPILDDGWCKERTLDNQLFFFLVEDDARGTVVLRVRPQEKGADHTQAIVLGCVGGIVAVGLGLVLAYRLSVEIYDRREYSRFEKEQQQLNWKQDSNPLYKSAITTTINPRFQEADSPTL
The experiment can be described thus: Binding affinity towards […] receptor in human RPMI-8866 B-cell line using [125I]MAdCAM-Ig as radioligand.

Experiment [2] concerns the target Integrin alpha-4/beta-1 (Homo sapiens, UniProt P05556+P13612). The experiment can be described thus: Binding affinity towards VLA-4 (alpha4 beta-1) receptor in human Jurkat cells using [125I]VCAM-Ig as radioligand. The experiment is classed as cell-based.

Integrin alpha-4/beta-1, sequence (P05556 whole entry, one chain of several): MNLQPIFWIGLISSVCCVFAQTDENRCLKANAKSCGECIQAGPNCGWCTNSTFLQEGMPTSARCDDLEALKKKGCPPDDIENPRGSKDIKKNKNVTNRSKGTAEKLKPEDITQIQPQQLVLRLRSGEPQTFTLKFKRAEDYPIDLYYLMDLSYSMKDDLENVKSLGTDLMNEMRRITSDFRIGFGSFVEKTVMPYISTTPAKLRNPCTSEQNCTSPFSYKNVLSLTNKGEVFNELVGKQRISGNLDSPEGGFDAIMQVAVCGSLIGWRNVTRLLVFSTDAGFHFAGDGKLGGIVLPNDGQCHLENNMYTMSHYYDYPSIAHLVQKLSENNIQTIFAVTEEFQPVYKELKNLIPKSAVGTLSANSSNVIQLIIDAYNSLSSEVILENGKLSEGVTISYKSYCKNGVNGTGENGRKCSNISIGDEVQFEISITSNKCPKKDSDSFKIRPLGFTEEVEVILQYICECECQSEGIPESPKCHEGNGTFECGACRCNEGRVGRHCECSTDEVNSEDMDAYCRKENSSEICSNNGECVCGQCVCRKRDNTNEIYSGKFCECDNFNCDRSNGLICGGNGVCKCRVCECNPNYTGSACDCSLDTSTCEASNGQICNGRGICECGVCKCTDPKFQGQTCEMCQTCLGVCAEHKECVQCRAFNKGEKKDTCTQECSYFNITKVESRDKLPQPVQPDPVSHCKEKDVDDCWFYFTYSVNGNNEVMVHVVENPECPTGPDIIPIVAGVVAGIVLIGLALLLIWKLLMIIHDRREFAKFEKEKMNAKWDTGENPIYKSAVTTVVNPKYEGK

Take `COc1ccccc1-c1ccc(C[C@H](NC(=O)C2(S(=O)(=O)c3ccccc3)CCN(C(C)(C)C)CC2)C(=O)O)cc1`: the figures for the IC50 in experiment [1] and in experiment [2] were 9220 nM and 56 nM, respectively.

In turn, `CCCCCCCCS(=O)(=O)C1(C(=O)N[C@@H](Cc2ccc(-c3ccccc3)cc2)C(=O)O)CCCC1` gave a half-maximal inhibitory concentration (IC50) in experiment [2] of 150 nM.

As to `COc1cccc(OC)c1-c1ccc(C[C@H](NC(=O)C2(S(=O)(=O)CCN3CCOCC3)CCCNC2)C(=O)O)cc1` (some centres not stated), the results for the IC50 in experiment [1] and in experiment [2] were 257 nM and 0.67 nM, respectively.

As for `COc1cccc(OC)c1-c1ccc(C[C@H](NC(=O)C2(S(=O)(=O)CCNCCCN(C)C)CCCNC2)C(=O)O)cc1` (some centres not stated), the concentration for half-maximal inhibition (IC50) in experiment [1] is 179 nM; in experiment [2], 0.37 nM.

On to `COc1cccc(OC)c1-c1ccc(C[C@H](NC(=O)C2(S(=O)(=O)c3cccc(Br)c3)CCCNC2)C(=O)O)cc1` (some centres not stated), for which the results for the IC50 in experiment [1] and in experiment [2] were 83 nM and 0.13 nM, respectively.

On to `COc1ccccc1-c1ccc(C[C@H](NC(=O)C2(S(=O)(=O)C3CCCC3)CCCC2)C(=O)O)cc1`, for which the IC50 amounted to 147 nM in experiment [1] and 1.2 nM in experiment [2].

With `COc1ccccc1-c1ccc(C[C@H](NC(=O)C2(S(=O)(=O)c3ccccc3)CCC2)C(=O)O)cc1`, the IC50 in experiment [1] came out at 16 nM; in experiment [2], 1.2 nM.

In the case of `COc1cccc(OC)c1-c1ccc(C[C@H](NC(=O)C2(S(=O)(=O)c3ccccc3)CCC2)C(=O)O)cc1`, the IC50 in experiment [1] was 3.2 nM; in experiment [2], 0.17 nM.

As for `COc1cccc(OC)c1-c1ccc(C[C@H](NC(=O)C2(S(=O)(=O)Cc3ccccc3)CCCNC2)C(=O)O)cc1` (some centres not stated), the IC50 in experiment [1] stood at 436 nM; in experiment [2] it was 0.77 nM.

For the compound `COc1cccc(OC)c1-c1ccc(C[C@H](NC(=O)C2(S(C)(=O)=O)CCCNC2)C(=O)O)cc1` (some centres not stated), the 50% inhibitory concentration (IC50) in experiment [1] came out at 21 nM; in experiment [2], 0.19 nM.

`COc1cccc(OC)c1-c1ccc(C[C@H](NC(=O)C2(S(=O)(=O)c3ccccc3N3CCCC3)CCCNC2)C(=O)O)cc1` (some centres not stated): the half-maximal inhibitory concentration (IC50) in experiment [1] was found to be 388 nM; in experiment [2], 0.39 nM.

`COc1cccc(OC)c1-c1ccc(C[C@H](NC(=O)C2(S(=O)(=O)c3ccccc3)CCN(C)CC2)C(=O)O)cc1`: the IC50 in experiment [1] was determined as 466 nM; in experiment [2], 1.1 nM.

`COc1cccc(OC)c1-c1ccc(C[C@H](NC(=O)C2(S(=O)(=O)c3ccccc3)CCSCC2)C(=O)O)cc1`: the figures for the IC50 in experiment [1] and in experiment [2] were 5 nM and 0.22 nM, respectively.

On to `COc1ccccc1-c1ccc(C[C@H](NC(=O)C2(S(=O)(=O)c3ccccc3)CCN(c3ccccc3)CC2)C(=O)O)cc1`, for which the half-inhibitory concentration (IC50) came out at 1260 nM in experiment [1] and 23 nM in experiment [2].

Take `COc1ccccc1-c1ccc(C[C@H](NC(=O)C2(S(=O)(=O)c3ccccc3)CCCN(C)C2)C(=O)O)cc1` (some centres not stated): the figures for the IC50 in experiment [1] and in experiment [2] were 5790 nM and 6.6 nM, respectively.

In the case of `COc1cccc(OC)c1-c1ccc(C[C@H](NC(=O)C2(S(=O)(=O)c3ccccc3)CCOC2)C(=O)O)cc1` (some centres not stated), the IC50 turned out to be 5.2 nM in experiment [1] and 0.1 nM in experiment [2].

Turning to `CCN1CCC(C(=O)N[C@@H](Cc2ccc(-c3ccccc3OC)cc2)C(=O)O)(S(=O)(=O)c2ccccc2)CC1`, the 50% inhibitory concentration (IC50) in experiment [1] was found to be 1230 nM; in experiment [2], 31 nM.

On to `COc1cccc(OC)c1-c1ccc(C[C@H](NC(=O)C2(S(=O)(=O)c3ccccc3)CCCCC2)C(=O)O)cc1`, for which the 50% inhibitory concentration (IC50) in experiment [1] is 13 nM; in experiment [2], 0.19 nM.

Take `COc1cccc(OC)c1-c1ccc(C[C@H](NC(=O)C2(S(=O)(=O)c3ccc(N4CCCC4)cc3)CCCNC2)C(=O)O)cc1` (some centres not stated): the IC50 turned out to be 536 nM in experiment [1] and 0.36 nM in experiment [2].

Turning to `CCCCN1CCC(C(=O)N[C@@H](Cc2ccc(-c3ccccc3OC)cc2)C(=O)O)(S(=O)(=O)c2ccccc2)CC1`, the 50% inhibitory concentration (IC50) in experiment [1] is 9180 nM; in experiment [2] it was 51 nM.

With `O=C(O)[C@H](Cc1ccc(-c2ccccc2)cc1)NC(=O)C1(S(=O)(=O)c2ccccc2)Cc2ccccc2C1`, the figures for the IC50 in experiment [1] and in experiment [2] were 7340 nM and 680 nM, respectively.

Regarding `COc1ccccc1-c1ccc(C[C@H](NC(=O)C2(S(=O)(=O)c3ccccc3)CCNCC2)C(=O)O)cc1`, the results for the IC50 in experiment [1] and in experiment [2] were 1900 nM and 20 nM, respectively.

In the case of `COc1ccccc1-c1ccc(C[C@H](NC(=O)C2(S(=O)(=O)Nc3ccccc3)CCCC2)C(=O)O)cc1`, the 50% inhibitory concentration (IC50) is 521 nM in experiment [1] and 15 nM in experiment [2].

With `COc1ccccc1-c1ccc(C[C@H](NC(=O)C2(S(=O)(=O)c3ccccc3)CCN(C)CC2)C(=O)O)cc1`, the IC50 in experiment [1] was 2000 nM; in experiment [2], 3 nM.

Regarding `COc1ccccc1-c1ccc(C[C@H](NC(=O)C2(S(=O)(=O)c3ccccc3)CC[S+]([O-])CC2)C(=O)O)cc1` (some centres not stated), the IC50 in experiment [1] stood at 318 nM; in experiment [2], 4.4 nM.

In the case of `COc1cccc(OC)c1-c1ccc(C[C@H](NC(=O)C2(S(=O)(=O)c3cn(C)cn3)CCCNC2)C(=O)O)cc1` (some centres not stated), the concentration for half-maximal inhibition (IC50) was 97 nM in experiment [1] and 0.46 nM in experiment [2].

`COc1cccc(OC)c1-c1ccc(C[C@H](NC(=O)C2(S(=O)(=O)c3ccc(F)cc3)CCCC2)C(=O)O)cc1`: the IC50 was 5 nM in experiment [1] and 0.07 nM in experiment [2].

On to `COc1ccccc1-c1ccc(C[C@H](NC(=O)C2(S(=O)(=O)c3ccccc3)CCOC2)C(=O)O)cc1` (some centres not stated), for which the half-inhibitory concentration (IC50) stood at 45 nM in experiment [1] and 0.77 nM in experiment [2].

For the compound `COc1cccc(OC)c1-c1ccc(C[C@H](NC(=O)C2(S(=O)(=O)c3cncn3C)CCCNC2)C(=O)O)cc1` (some centres not stated), the IC50 in experiment [1] came to 46 nM; in experiment [2], 0.14 nM.

As to `COc1ccccc1-c1ccc(C[C@H](NC(=O)C2(S(=O)(=O)c3ccccc3)CCCNC2)C(=O)O)cc1` (some centres not stated), the IC50 in experiment [1] amounted to 622 nM; in experiment [2], 0.48 nM.

As for `CCS(=O)(=O)C1(C(=O)N[C@@H](Cc2ccc(-c3ccccc3OC)cc2)C(=O)O)CCCC1`, the 50% inhibitory concentration (IC50) in experiment [1] was 58 nM; in experiment [2], 0.53 nM.

As to `COc1cccc(OC)c1-c1ccc(C[C@H](NC(=O)C2(S(=O)(=O)c3ccc(Br)cc3)CCCNC2)C(=O)O)cc1` (some centres not stated), the IC50 in experiment [1] turned out to be 94 nM; in experiment [2], 0.19 nM.

On to `COc1cccc(OC)c1-c1ccc(C[C@H](NC(=O)C2(S(=O)(=O)c3ccccc3Br)CCCNC2)C(=O)O)cc1` (some centres not stated), for which the figures for the half-maximal inhibitory concentration (IC50) in experiment [1] and in experiment [2] were 96 nM and 0.15 nM, respectively.

In the case of `COc1ccccc1-c1ccc(C[C@H](NC(=O)C2(S(=O)(=O)c3ccccc3)CCS(=O)(=O)CC2)C(=O)O)cc1`, the IC50 is 70 nM in experiment [1] and 1.3 nM in experiment [2].

`COc1ccccc1-c1ccc(C[C@H](NC(=O)C2(S(=O)(=O)c3ccccc3)CCSCC2)C(=O)O)cc1`: the IC50 in experiment [1] amounted to 128 nM; in experiment [2], 4.1 nM.

As to `COc1ccccc1-c1ccc(C[C@H](NC(=O)C2(S(=O)(=O)c3ccc(F)cc3)CCCC2)C(=O)O)cc1`, the half-inhibitory concentration (IC50) was 40 nM in experiment [1] and 0.27 nM in experiment [2].

For the compound `COc1cccc(OC)c1-c1ccc(C[C@H](NC(=O)C2(S(=O)(=O)c3ccccc3)CCCC2)C(=O)O)cc1`, the values for the IC50 in experiment [1] and in experiment [2] were 5 nM and 0.11 nM, respectively.

Take `CCN(CC)S(=O)(=O)C1(C(=O)N[C@@H](Cc2ccc(-c3ccccc3OC)cc2)C(=O)O)CCCC1`: the IC50 in experiment [1] was 54 nM; in experiment [2], 0.97 nM.

Take `COc1ccccc1-c1ccc(C[C@H](NC(=O)C2(S(=O)(=O)c3ccccc3)CCOCC2)C(=O)O)cc1`: the IC50 in experiment [1] is 150 nM; in experiment [2], 0.55 nM.

Source of the values: ChEMBL document CHEMBL1145739, “N-(3-phenylsulfonyl-3-piperidinoyl)-phenylalanine derivatives as potent, selective VLA-4 antagonists” (Bioorg Med Chem Lett, 2003).
